Source: ChEMBL document CHEMBL1201862, “PubChem BioAssay data set” (2004)
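Test compounds were applied to cells in 96-well plates for 48 hours at 5 doses. Abbreviation: GI50, concentration required for 50% inhibition of growth.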 Active and inactive are the calls of the source. Rule as the data show it: active = GI50 up to about 1.1 µM and inactive = higher.

Experiments:
Experiment in all cases: DTP human tumour cell line panel, 48 h
786-0 = system: 786-0
A498 = system: A498
A549 = system: A549
ACHN = system: ACHN
CAKI-1 = system: CAKI-1
CCRF-CEM = system: CCRF-CEM
COLO 205 = system: COLO 205
DU-145 = system: DU-145
EKVX = system: EKVX
HCC 2998 = system: HCC 2998
HCT-116 = system: HCT-116
HCT-15 = system: HCT-15
HL-60 = system: HL-60
HOP-62 = system: HOP-62
HT-29 = system: HT-29
Hs-578T = system: Hs-578T
IGROV-1 = system: IGROV-1
K562 = system: K562
KM12 = system: KM12
LOX IMVI = system: LOX IMVI
M14 = system: M14
MCF7 = system: MCF7
MDA-MB-231 = system: MDA-MB-231
MDA-MB-435 = system: MDA-MB-435
MOLT-4 = system: MOLT-4
Malme-3M = system: Malme-3M
NCI-H226 = system: NCI-H226
NCI-H23 = system: NCI-H23
NCI-H460 = system: NCI-H460
NCI-H522 = system: NCI-H522
NCI/ADR-RES = system: NCI/ADR-RES
OVCAR-3 = system: OVCAR-3
OVCAR-4 = system: OVCAR-4
OVCAR-5 = system: OVCAR-5
OVCAR-8 = system: OVCAR-8
PC-3 = system: PC-3
RPMI-8226 = system: RPMI-8226
RXF 393 = system: RXF 393
SF-268 = system: SF-268
SF-295 = system: SF-295
SF-539 = system: SF-539
SK-MEL-28 = system: SK-MEL-28
SK-MEL-2 = system: SK-MEL-2
SK-MEL-5 = system: SK-MEL-5
SK-OV-3 = system: SK-OV-3
SN12C = system: SN12C
SNB-19 = system: SNB-19
SNB-75 = system: SNB-75
SR = system: SR
SW-620 = system: SW-620
T47D = system: T47D
TK-10 = system: TK-10
U-251 = system: U-251
UACC-257 = system: UACC-257
UACC-62 = system: UACC-62
UO-31 = system: UO-31
HOP-92 = system: HOP-92
MDA-N = system: MDA-N

## O=C1NCC2(CCN(CC3COc4ccccc4O3)CC2)N1c1ccccc1 (configuration not stated)
786-0
  GI50: > 100 µM (inactive)
A498
  GI50: > 100 µM (inactive)
A549
  GI50: > 100 µM (inactive)
ACHN
  GI50: > 100 µM (inactive)
CAKI-1
  GI50: > 100 µM (inactive)
CCRF-CEM
  GI50: > 100 µM (inactive)
COLO 205
  GI50: > 100 µM (inactive)
DU-145
  GI50: > 100 µM (inactive)
EKVX
  GI50: > 100 µM (inactive)
HCC 2998
  GI50: > 100 µM (inactive)
HCT-116
  GI50: > 100 µM (inactive)
HCT-15
  GI50: > 100 µM
HL-60
  GI50: 60.3 µM (inactive)
HOP-62
  GI50: > 100 µM (inactive)
HT-29
  GI50: > 100 µM (inactive)
Hs-578T
  GI50: > 100 µM (inactive)
IGROV-1
  GI50: > 100 µM (inactive)
K562
  GI50: 80.4 µM (inactive)
KM12
  GI50: > 100 µM (inactive)
LOX IMVI
  GI50: > 100 µM (inactive)
M14
  GI50: > 100 µM (inactive)
MCF7
  GI50: > 100 µM (inactive)
MDA-MB-231
  GI50: > 100 µM (inactive)
MDA-MB-435
  GI50: > 100 µM (inactive)
MOLT-4
  GI50: 71.1 µM (inactive)
Malme-3M
  GI50: > 100 µM (inactive)
NCI-H226
  GI50: > 100 µM (inactive)
NCI-H23
  GI50: > 100 µM (inactive)
NCI-H460
  GI50: > 100 µM (inactive)
NCI-H522
  GI50: > 100 µM (inactive)
NCI/ADR-RES
  GI50: > 100 µM (inactive)
OVCAR-3
  GI50: > 100 µM (inactive)
OVCAR-4
  GI50: > 100 µM (inactive)
OVCAR-5
  GI50: > 100 µM (inactive)
OVCAR-8
  GI50: > 100 µM (inactive)
PC-3
  GI50: > 100 µM (inactive)
RPMI-8226
  GI50: > 100 µM (inactive)
RXF 393
  GI50: > 100 µM (inactive)
SF-268
  GI50: > 100 µM (inactive)
SF-295
  GI50: > 100 µM (inactive)
SF-539
  GI50: > 100 µM (inactive)
SK-MEL-28
  GI50: 89.5 µM (inactive)
SK-MEL-2
  GI50: > 100 µM (inactive)
SK-MEL-5
  GI50: > 100 µM (inactive)
SK-OV-3
  GI50: > 100 µM (inactive)
SN12C
  GI50: > 100 µM (inactive)
SNB-19
  GI50: > 100 µM (inactive)
SNB-75
  GI50: > 100 µM (inactive)
SR
  GI50: > 100 µM (inactive)
SW-620
  GI50: > 100 µM (inactive)
T47D
  GI50: > 100 µM (inactive)
TK-10
  GI50: > 100 µM (inactive)
U-251
  GI50: > 100 µM (inactive)
UACC-257
  GI50: > 100 µM (inactive)
UACC-62
  GI50: > 100 µM (inactive)
UO-31
  GI50: > 100 µM (inactive)

## NC(=O)CC(Nc1ncc2c(n1)-c1ccccc1OC2)C(=O)O (configuration not stated)
786-0
  GI50: > 100 µM (inactive)
A549
  GI50: > 100 µM (inactive)
ACHN
  GI50: > 100 µM (inactive)
CAKI-1
  GI50: 43.1 µM (inactive)
CCRF-CEM
  GI50: > 100 µM (inactive)
COLO 205
  GI50: > 100 µM (inactive)
DU-145
  GI50: > 100 µM (inactive)
EKVX
  GI50: 59.6 µM (inactive)
HCT-116
  GI50: > 100 µM (inactive)
HCT-15
  GI50: 85.7 µM
HL-60
  GI50: 14.9 µM (inactive)
HOP-62
  GI50: > 100 µM (inactive)
HOP-92
  GI50: > 100 µM (inactive)
HT-29
  GI50: 64.3 µM (inactive)
Hs-578T
  GI50: > 100 µM (inactive)
IGROV-1
  GI50: 24.2 µM (inactive)
K562
  GI50: > 100 µM (inactive)
KM12
  GI50: > 100 µM (inactive)
LOX IMVI
  GI50: > 100 µM (inactive)
M14
  GI50: > 100 µM (inactive)
MCF7
  GI50: 77.6 µM (inactive)
MDA-MB-231
  GI50: > 100 µM (inactive)
MDA-MB-435
  GI50: > 100 µM (inactive)
MDA-N
  GI50: > 100 µM (inactive)
MOLT-4
  GI50: > 100 µM (inactive)
Malme-3M
  GI50: 92 µM (inactive)
NCI-H226
  GI50: 71.1 µM (inactive)
NCI-H23
  GI50: > 100 µM (inactive)
NCI-H460
  GI50: > 100 µM (inactive)
NCI-H522
  GI50: > 100 µM (inactive)
NCI/ADR-RES
  GI50: > 100 µM (inactive)
OVCAR-3
  GI50: > 100 µM (inactive)
OVCAR-4
  GI50: > 100 µM (inactive)
OVCAR-5
  GI50: > 100 µM (inactive)
OVCAR-8
  GI50: > 100 µM (inactive)
PC-3
  GI50: > 100 µM (inactive)
RPMI-8226
  GI50: 26 µM (inactive)
RXF 393
  GI50: > 100 µM (inactive)
SF-268
  GI50: > 100 µM (inactive)
SF-295
  GI50: > 100 µM (inactive)
SF-539
  GI50: > 100 µM (inactive)
SK-MEL-28
  GI50: > 100 µM (inactive)
SK-MEL-2
  GI50: > 100 µM (inactive)
SK-MEL-5
  GI50: > 100 µM (inactive)
SK-OV-3
  GI50: > 100 µM (inactive)
SN12C
  GI50: > 100 µM (inactive)
SNB-19
  GI50: > 100 µM (inactive)
SNB-75
  GI50: 67.9 µM (inactive)
SR
  GI50: > 100 µM (inactive)
SW-620
  GI50: > 100 µM (inactive)
TK-10
  GI50: > 100 µM (inactive)
U-251
  GI50: > 100 µM (inactive)
UACC-257
  GI50: 61.7 µM (inactive)
UACC-62
  GI50: > 100 µM (inactive)
UO-31
  GI50: > 100 µM (inactive)

## Clc1ccc(C2ON=C(c3ccccc3)N2C23CC4CC(CC(C4)C2)C3)c(Cl)c1 (configuration not stated)
786-0
  GI50: > 10 µM (inactive)
A498
  GI50: > 10 µM (inactive)
A549
  GI50: > 10 µM (inactive)
ACHN
  GI50: > 10 µM (inactive)
CAKI-1
  GI50: > 10 µM (inactive)
CCRF-CEM
  GI50: > 10 µM (inactive)
COLO 205
  GI50: > 10 µM (inactive)
DU-145
  GI50: > 10 µM (inactive)
EKVX
  GI50: > 10 µM (inactive)
HCC 2998
  GI50: > 10 µM (inactive)
HCT-116
  GI50: > 10 µM (inactive)
HCT-15
  GI50: > 10 µM
HOP-62
  GI50: > 10 µM (inactive)
HOP-92
  GI50: > 10 µM (inactive)
HT-29
  GI50: > 10 µM (inactive)
Hs-578T
  GI50: > 10 µM (inactive)
IGROV-1
  GI50: > 10 µM (inactive)
K562
  GI50: > 10 µM (inactive)
KM12
  GI50: > 10 µM (inactive)
LOX IMVI
  GI50: > 10 µM (inactive)
M14
  GI50: > 10 µM (inactive)
MCF7
  GI50: > 10 µM (inactive)
MDA-MB-231
  GI50: > 10 µM (inactive)
MDA-MB-435
  GI50: > 10 µM (inactive)
MDA-N
  GI50: > 10 µM (inactive)
MOLT-4
  GI50: > 10 µM (inactive)
Malme-3M
  GI50: > 10 µM (inactive)
NCI-H226
  GI50: > 10 µM (inactive)
NCI-H23
  GI50: > 10 µM (inactive)
NCI-H460
  GI50: > 10 µM (inactive)
NCI-H522
  GI50: > 10 µM (inactive)
NCI/ADR-RES
  GI50: > 10 µM (inactive)
OVCAR-3
  GI50: > 10 µM (inactive)
OVCAR-4
  GI50: > 10 µM (inactive)
OVCAR-5
  GI50: > 10 µM (inactive)
OVCAR-8
  GI50: > 10 µM (inactive)
PC-3
  GI50: > 10 µM (inactive)
RPMI-8226
  GI50: > 10 µM (inactive)
RXF 393
  GI50: > 10 µM (inactive)
SF-268
  GI50: > 10 µM (inactive)
SF-295
  GI50: > 10 µM (inactive)
SF-539
  GI50: > 10 µM (inactive)
SK-MEL-28
  GI50: > 10 µM (inactive)
SK-MEL-2
  GI50: > 10 µM (inactive)
SK-MEL-5
  GI50: > 10 µM (inactive)
SK-OV-3
  GI50: > 10 µM (inactive)
SN12C
  GI50: > 10 µM (inactive)
SNB-19
  GI50: > 10 µM (inactive)
SNB-75
  GI50: > 10 µM (inactive)
SW-620
  GI50: > 10 µM (inactive)
T47D
  GI50: > 10 µM (inactive)
TK-10
  GI50: > 10 µM (inactive)
U-251
  GI50: > 10 µM (inactive)
UACC-257
  GI50: > 10 µM (inactive)
UACC-62
  GI50: > 10 µM (inactive)
UO-31
  GI50: > 10 µM (inactive)
